In ChEMBL document CHEMBL5500384, “New synergistic benzoquinone scaffolds as inhibitors of mycobacterial cytochrome bc1 complex to treat multi-drug resistant tuberculosis” (Eur J Med Chem, 2024):
≈ marks a conversion by molar mass, not a printed value.

Legend:
[1] = tested on: Mycobacterium tuberculosis; assay: Antitubercular activity against Mycobacterium tuberculosis H37Rv incubated for 5 days by microtiter plate method; assay type: functional; conditions: 120 h, time 5 day
[2] = Cytotoxicity against african green monkey Vero cells by MTT assay; assay type: toxicity, cell-based; conditions: chlorocebus sabaeus
[3] = Cytotoxicity against african green monkey Vero cells assessed as cell viability at 100 ug/ml by MTT assay; assay type: toxicity, cell-based; conditions: chlorocebus sabaeus, at 100 µg/mL, read-out: Activity
[4] = Cytotoxicity against african green monkey Vero cells assessed as cell viability at 50 ug/ml by MTT assay; assay type: toxicity, cell-based; conditions: chlorocebus sabaeus, at 50 µg/mL, read-out: Activity
[5] = Cytotoxicity against african green monkey Vero cells assessed as cell viability at 25 ug/ml by MTT assay; assay type: toxicity, cell-based; conditions: chlorocebus sabaeus, at 25 µg/mL, read-out: Activity
[6] = Cytotoxicity against african green monkey Vero cells assessed as cell viability at 12.5 ug/ml by MTT assay; assay type: toxicity, cell-based; conditions: chlorocebus sabaeus, at 12.5 µg/mL, read-out: Activity
[7] = Cytotoxicity against african green monkey Vero cells assessed as cell viability at 6.25 ug/ml by MTT assay; assay type: toxicity, cell-based; conditions: chlorocebus sabaeus, at 6.25 µg/mL, read-out: Activity
[8] = Cytotoxicity against african green monkey Vero cells assessed as cell viability at 3.125 ug/ml by MTT assay; assay type: toxicity, cell-based; conditions: chlorocebus sabaeus, at 3.125 µg/mL, read-out: Activity
[9] = Acute toxicity in Albino mouse assessed as mortality at 2000 mg/kg, po after 2 to 4 hrs; assay type: organism-based; conditions: in vivo, time 2-4 hrs
[10] = Acute toxicity in Albino mouse assessed as mortality at 300 mg/kg, po after 14 days; assay type: organism-based; conditions: in vivo, 336 h, time 14 day
[11] = Acute toxicity in po dosed Albino mouse assessed as mortality after 14 days; assay type: organism-based; conditions: in vivo, time 14 day
[12] = Acute toxicity in Albino mouse assessed as change in hemoglobin level at 50 to 2000 mg/kg, po measured after 14 days (reference value: 12.8 g/dl); assay type: organism-based; conditions: in vivo, 336 h, dose 50-2000 mg/kg, time 14 day
[13] = Acute toxicity in Albino mouse assessed as change in total leucocyte count at 50 to 2000 mg/kg, po measured after 14 days (reference value: 7400 mm3); assay type: organism-based; conditions: in vivo, 336 h, dose 50-2000 mg/kg, time 14 day
[14] = Acute toxicity in Albino mouse assessed as change in neutrophils at 50 to 2000 mg/kg, po measured after 14 days (reference value: 75%); assay type: organism-based; conditions: in vivo, 336 h, dose 50-2000 mg/kg, time 14 day
[15] = Acute toxicity in Albino mouse assessed as change in lymphocytes at 50 to 2000 mg/kg, po measured after 14 days (reference value: 21%); assay type: organism-based; conditions: in vivo, 336 h, dose 50-2000 mg/kg, time 14 day
[16] = Acute toxicity in Albino mouse assessed as change in eosinophils at 50 to 2000 mg/kg, po measured after 14 days (reference value: 3%); assay type: organism-based; conditions: in vivo, 336 h, dose 50-2000 mg/kg, time 14 day
[17] = Acute toxicity in Albino mouse assessed as change in monocytes at 50 to 2000 mg/kg, po measured after 14 days (reference value: 1%); assay type: organism-based; conditions: in vivo, 336 h, dose 50-2000 mg/kg, time 14 day
[18] = Acute toxicity in Albino mouse assessed as change in ESR at 50 to 2000 mg/kg, po measured after 14 days (reference value: 10 millimeter); assay type: organism-based; conditions: in vivo, 336 h, dose 50-2000 mg/kg, time 14 day
[19] = Acute toxicity in Albino mouse assessed as change in platelet count at 50 to 2000 mg/kg, po measured after 14 days (reference value: 3.24 mm3); assay type: organism-based; design: unit not given here; conditions: in vivo, 336 h, dose 50-2000 mg/kg, time 14 day
[20] = Acute toxicity in Albino mouse assessed as change in RBC count measured per million cells at 50 to 2000 mg/kg, po measured after 14 days (reference value: 9.15 microL); assay type: organism-based, Erythrocyte; conditions: in vivo, 336 h, dose 50-2000 mg/kg, time 14 day
[21] = Acute toxicity in Albino mouse assessed as change in SGOT count at 50 to 2000 mg/kg, po measured after 14 days (reference value: 42 IU/L); assay type: organism-based; conditions: in vivo, 336 h, dose 50-2000 mg/kg, time 14 day
[22] = Acute toxicity in Albino mouse assessed as change in SGPT count at 50 to 2000 mg/kg, po measured after 14 days (reference value: 52 IU/L); assay type: organism-based; conditions: in vivo, 336 h, dose 50-2000 mg/kg, time 14 day
[23] = Acute toxicity in Albino mouse assessed as change in serum creatine level at 50 to 2000 mg/kg, po measured after 14 days (reference value: 0.9 mg/dl); assay type: organism-based; conditions: in vivo, 336 h, dose 50-2000 mg/kg, time 14 day
[24] = Acute toxicity in Albino mouse assessed as change in serum urea level at 50 to 2000 mg/kg, po measured after 14 days (reference value: 46 mg/dl); assay type: organism-based; conditions: in vivo, 336 h, dose 50-2000 mg/kg, time 14 day
[25] = Acute toxicity in Albino mouse assessed as change in ALP level at 50 to 2000 mg/kg, po measured after 14 days (reference value: 28 IU/L); assay type: organism-based; conditions: in vivo, 336 h, dose 50-2000 mg/kg, time 14 day
[26] = Acute toxicity in Albino mouse assessed as change in LDH level at 50 to 2000 mg/kg, po measured after 14 days (reference value: 1052 IU/L); assay type: organism-based; conditions: in vivo, 336 h, dose 50-2000 mg/kg, time 14 day
[27] = Renal toxicity in Albino mouse assessed as change in renal corpuscles at 50 to 2000 mg/kg, po measured after 14 days; assay type: organism-based; conditions: in vivo, 336 h, dose 50-2000 mg/kg, time 14 day
[28] = Renal toxicity in Albino mouse assessed as change in renal tubules at 50 to 2000 mg/kg, po measured after 14 days; assay type: organism-based; conditions: in vivo, 336 h, dose 50-2000 mg/kg, time 14 day
[29] = Renal toxicity in Albino mouse assessed as change in Bowman's capsule at 50 to 2000 mg/kg, po measured after 14 days; assay type: organism-based; conditions: in vivo, 336 h, dose 50-2000 mg/kg, time 14 day
[30] = Renal toxicity in Albino mouse assessed as change in proximal convoluted tubules at 50 to 2000 mg/kg, po measured after 14 days; assay type: organism-based; conditions: in vivo, 336 h, dose 50-2000 mg/kg, time 14 day
[31] = Renal toxicity in Albino mouse assessed as change in distal convoluted tubules at 50 to 2000 mg/kg, po measured after 14 days; assay type: organism-based; conditions: in vivo, 336 h, dose 50-2000 mg/kg, time 14 day
[32] = Renal toxicity in Albino mouse assessed as change in tubular capillaries at 50 to 2000 mg/kg, po measured after 14 days; assay type: organism-based; conditions: in vivo, 336 h, dose 50-2000 mg/kg, time 14 day
[33] = Renal toxicity in Albino mouse assessed as extravasation of RBC at 50 to 2000 mg/kg, po measured after 14 days; assay type: organism-based, Erythrocyte; conditions: in vivo, 336 h, dose 50-2000 mg/kg, time 14 day
[34] = Renal toxicity in Albino mouse assessed as structural absorbability abnormalities at 50 to 2000 mg/kg, po measured after 14 days; assay type: organism-based; conditions: in vivo, 336 h, dose 50-2000 mg/kg, time 14 day
[35] = Hepatotoxicity in Albino mouse assessed as change in central vein at 50 to 2000 mg/kg, po measured after 14 days; assay type: toxicity, organism-based; conditions: in vivo, 336 h, dose 50-2000 mg/kg, time 14 day
[36] = Hepatotoxicity in Albino mouse assessed as change in portal tracks at 50 to 2000 mg/kg, po measured after 14 days; assay type: toxicity, organism-based; conditions: in vivo, 336 h, dose 50-2000 mg/kg, time 14 day
[37] = Hepatotoxicity in Albino mouse assessed as change in portal vein at 50 to 2000 mg/kg, po measured after 14 days; assay type: toxicity, organism-based; conditions: in vivo, 336 h, dose 50-2000 mg/kg, time 14 day
[38] = Hepatotoxicity in Albino mouse assessed as change in hepatic artery at 50 to 2000 mg/kg, po measured after 14 days; assay type: toxicity, organism-based, Liver; conditions: in vivo, 336 h, dose 50-2000 mg/kg, time 14 day
[39] = Hepatotoxicity in Albino mouse assessed as change in bile duct at 50 to 2000 mg/kg, po measured after 14 days; assay type: toxicity, organism-based, Liver; conditions: in vivo, 336 h, dose 50-2000 mg/kg, time 14 day
[40] = Hepatotoxicity in Albino mouse assessed as change in hepatocytes at 50 to 2000 mg/kg, po measured after 14 days; assay type: toxicity, organism-based; conditions: in vivo, 336 h, dose 50-2000 mg/kg, time 14 day
[41] = Pulmonary toxicity in Albino mouse assessed as change in bronchi structure at 50 to 2000 mg/kg, po measured after 14 days; assay type: organism-based; conditions: in vivo, 336 h, dose 50-2000 mg/kg, time 14 day
[42] = Pulmonary toxicity in Albino mouse assessed as change in alveoli structure at 50 to 2000 mg/kg, po measured after 14 days; assay type: organism-based; conditions: in vivo, 336 h, dose 50-2000 mg/kg, time 14 day
[43] = Pulmonary toxicity in Albino mouse assessed as change in alveolar sacs at 50 to 2000 mg/kg, po measured after 14 days; assay type: organism-based; conditions: in vivo, 336 h, dose 50-2000 mg/kg, time 14 day
[44] = Pulmonary toxicity in Albino mouse assessed as change in squamous pneumocytes at 50 to 2000 mg/kg, po measured after 14 days; assay type: organism-based; conditions: in vivo, 336 h, dose 50-2000 mg/kg, time 14 day
[45] = Pulmonary toxicity in Albino mouse assessed as appearance of goblet cells at 50 to 2000 mg/kg, po measured after 14 days; assay type: organism-based; conditions: in vivo, 336 h, dose 50-2000 mg/kg, time 14 day
[46] = Pulmonary toxicity in Albino mouse assessed as appearance of cilia at 50 to 2000 mg/kg, po measured after 14 days; assay type: organism-based; conditions: in vivo, 336 h, dose 50-2000 mg/kg, time 14 day

**Q.** What does the source list for CCOc1cc(C2C(Cl)C(=O)N2C2=C(Cl)C(=O)c3ccccc3C2=O)ccc1O (stereo unspecified)?
**A.** MIC [1]: 14.5 µM (≈ 6.25 µg/mL); Activity [2]: Dose-Dependent Effect; viability at 100 ug/ml [3]: 10.4%; viability at 50 ug/ml [4]: 30.6%; viability at 25 ug/ml [5]: 67.8%; viability at 12.5 ug/ml [6]: 100%; viability at 6.25 ug/ml [7]: 100%; viability at 3.125 ug/ml [8]: 100%; Activity [9]: Toxic; Activity [10]: Non-Toxic; LD50 at 336 h [11]: 300 mg/kg; Activity [12]: 12.5 g/dL; Activity [13]: 8200 mm3; Activity [14]: 66%; Activity [15]: 34%; Activity [16]: 3%; Activity [17]: 1%; Activity [18]: 11 millimeter/hr; Activity [19]: 4.9; Activity [20]: 8.95; Activity [21]: 168.67 IU/L; Activity [22]: 75.33 IU/L; Activity [23]: < 0.3 mg/dL; Activity [24]: 35.72 mg/dL; Activity [25]: 832.75 IU/L; Activity [26]: 470.21 IU/L; Activity [27]: Non-Toxic; Activity [28]: Non-Toxic; Activity [29]: Non-Toxic; Activity [30]: Non-Toxic; Activity [31]: Non-Toxic; Activity [32]: Non-Toxic; Activity [33]: Non-Toxic; Activity [34]: Non-Toxic; Activity [35]: Non-Toxic; Activity [36]: Non-Toxic; Activity [37]: Non-Toxic; Activity [38]: Non-Toxic; Activity [39]: Non-Toxic; Activity [40]: Non-Toxic; Activity [41]: Non-Toxic; Activity [42]: Non-Toxic; Activity [43]: Non-Toxic; Activity [44]: Non-Toxic; Activity [45]: Non-Toxic; Activity [46]: Non-Toxic
